In publication PMC166128 (BMC Infectious Diseases, 2003):
Where two headings read alike, the source gives them in different places.

Tests used:
[1] = tested on: VV, VSV, HSV-1, HSV-2, Coxsackie virus B4 and poliovirus-1; conditions: cited from earlier work
[2] = tested on: HeLa S3 cells; assay: Cell proliferation assay, 3H-thymidine uptake; conditions: 2 days + 16 h, single experiment
[3] = tested on: CV-1 cells; assay: Cytostatic activity; conditions: CV-1 cells seeded at 3.5 × 10^3 cells/well; 24 h incubation; cells counted
[4] = tested on: vaccinia virus IHD-J (EEV); format: cell-based
[5] = tested on: vaccinia virus WR strain; format: cell-based
[6] = tested on: vaccinia virus; format: cell-based
[7] = tested on: vaccinia virus WR strain; format: cell-based; conditions: 16 h
[8] = tested on: vaccinia virus Western Reserve (WR) strain; format: cell-based
[9] = tested on: vaccinia; conditions: read-out: EC50 (vaccinia); cited from earlier work
[10] = tested on: camelpox; conditions: read-out: EC50 (camelpox); cited from earlier work
[11] = tested on: cowpox; conditions: read-out: EC50 (cowpox); cited from earlier work
[12] = tested on: monkeypox; conditions: read-out: EC50 (monkeypox); cited from earlier work
[13] = tested on: vaccinia virus International Health Department-J (IHD-J) strain; format: cell-based

## O=C(O)c1ccc(-c2c3nc(c(-c4ccc(C(=O)O)cc4)c4ccc([nH]4)c(-c4ccc(C(=O)O)cc4)c4nc(c(-c5ccc(C(=O)O)cc5)c5ccc2[nH]5)C=C4)C=C3)cc1 [TPPC, meso-tetra(4-carboxyphenyl)porphyrin]
[1]
  EC50s for VV, VSV, HSV-1, HSV-2, Coxsackie virus B4 and poliovirus-1: ≥ 20 µg/mL

## C=CC1=C(C)c2cc3[n-]c(cc4nc(cc5[n-]c(cc1n2)c(C)c5C=C)C(C)=C4CCC(=O)O)c(CCC(=O)O)c3C.[Zn+2] [ZnPPIX, zinc protoporphyrin]
[2]
  CC50 Cell proliferation: 25 µg/mL
[3]
  CC50 Cytostatic activity: 370 µg/mL
[4]
  EC50 IHD-J (EEV) CV-1: 38 ± 7.8 µg/mL
[5]; 25 µg/mL
  % inhibition: 98%
  titer: 2.5 × 10^5 pfu/mL
[5]; 50 µg/mL
  % inhibition: 99%
  titer: 1.0 × 10^5 pfu/mL
[6]; 25 µg/mL
  % inhibition: 92 ± 1%
  titer: 2.1 × 10^4 pfu/mL
[6]; 50 µg/mL
  % inhibition: 99 ± 7%
  titer: 3.2 × 10^3 pfu/mL
[7]; 25 µg/mL
  % inhibition: 65 ± 0.3%
  titer: 7.2 × 10^5 pfu/mL
[7]; 50 µg/mL
  % inhibition: 70 ± 4%
  titer: 6.4 × 10^5 pfu/mL
[8]
  EC50 WR CV-1: 15 ± 12 µg/mL

## Nc1ccn(C[C@@H](CO)OCP(=O)(O)O)c(=O)n1 [cidofovir]
[9]
  EC50: 46.2 µM
[10]
  EC50: 2.3 µM
[11]
  EC50: 58 µM
[12]
  EC50: 27 µM

## Fe meso-tetrakis(3,4-disulfonatomesityl)porphyrin [FeTMPS]
[1]
  EC50s for VV, VSV, HSV-1, HSV-2, Coxsackie virus B4 and poliovirus-1: ≥ 20 µg/mL

## copper hematoporphyrin [CuHPIX]
[2]
  CC50 Cell proliferation: 36 µg/mL
[13]
  EC50 IHD-J CV-1: 1.5 ± 0.4 µg/mL
[4]
  EC50 IHD-J (EEV) BSC-40: 0.32 ± 0.13 µg/mL
  EC50 IHD-J (EEV) CV-1: 1.1 ± 0.4 µg/mL
[5]; 25 µg/mL
  % inhibition: 93%
  titer: 1.1 × 10^6 pfu/mL
[5]; 50 µg/mL
  % inhibition: 97%
  titer: 4.5 × 10^5 pfu/mL
[6]; 25 µg/mL
  % inhibition: 80 ± 2%
  titer: 5.0 × 10^4 pfu/mL
[6]; 50 µg/mL
  % inhibition: 91 ± 2%
  titer: 2.3 × 10^4 pfu/mL
[7]; 25 µg/mL
  % inhibition: 33 ± 9%
  titer: 1.3 × 10^6 pfu/mL
[7]; 50 µg/mL
  % inhibition: 71 ± 4%
  titer: 6.3 × 10^5 pfu/mL
[8]
  EC50 WR BSC-40: 0.03 ± 0.01 µg/mL
  EC50 WR CV-1: 7.8 ± 0.9 µg/mL

## sulfonated 5,10,15,20-tetra-naphthalen-1-yl-porphyrin [TNapPS]
[3]
  CC50 Cytostatic activity: 400 µg/mL
[4]
  EC50 IHD-J (EEV) CV-1: 1.0 ± 0.1 µg/mL
[5]; 25 µg/mL
  % inhibition: 98%
  titer: 3.5 × 10^5 pfu/mL
[5]; 50 µg/mL
  % inhibition: 98%
  titer: 2.6 × 10^5 pfu/mL
[6]; 25 µg/mL
  % inhibition: 87 ± 5%
  titer: 3.3 × 10^4 pfu/mL
[6]; 50 µg/mL
  % inhibition: 95 ± 2%
  titer: 1.3 × 10^4 pfu/mL
[7]; 25 µg/mL
  % inhibition: 73 ± 16%
  titer: 3.5 × 10^5 pfu/mL
[7]; 50 µg/mL
  % inhibition: 92 ± 1%
  titer: 1.0 × 10^5 pfu/mL

## sulfonated copper phthalocyanine [CuPcS(3444)]
[2]
  CC50 Cell proliferation: > 500 µg/mL
[13]
  EC50 IHD-J CV-1: 14 ± 5.3 µg/mL
[3]
  CC50 Cytostatic activity: > 1000 µg/mL
[4]
  EC50 IHD-J (EEV) BSC-40: 50 ± 7 µg/mL
  EC50 IHD-J (EEV) CV-1: 8.2 ± 1.3 µg/mL
[5]; 25 µg/mL
  % inhibition: 60%
  titer: 6.3 × 10^6 pfu/mL
[5]; 50 µg/mL
  % inhibition: 74%
  titer: 4.1 × 10^6 pfu/mL
[6]; 25 µg/mL
  % inhibition: 92 ± 3%
  titer: 2.1 × 10^4 pfu/mL
[6]; 50 µg/mL
  % inhibition: 90 ± 2%
  titer: 2.4 × 10^4 pfu/mL
[7]; 25 µg/mL
  % inhibition: 49 ± 21%
  titer: 9.3 × 10^5 pfu/mL
[7]; 50 µg/mL
  % inhibition: 59 ± 2%
  titer: 8.3 × 10^5 pfu/mL
